# Assay results published in patent US20140303092A1 (CHIMERIX, INC., priority 2011, published 2014).
# Test: Study HDP-CDV-201: safety and tolerability (adverse events, laboratory abnormalities, discontinuations)
# Format: in vivo, human (adult allogeneic HSCT recipients)
# Settings: Cohort 4A
# Experimental: Clinical Studies of HDP-CDV were performed and described in detail in the following Examples. For example, HDP-CDV-201 is a placebo-controlled, dose-escalating trial in HSCT CMV (R+) recipients, evaluating the ability of HDP-CDV to prevent or control CMV infection was carried out. Five cohorts were established in which participants or subjects received either placebo or the HDP-CDV orally, in doses ranging from 40 mg weekly (QW) to 200 mg twice weekly (BIW). Subjects who were post-HSCT were enrolled at the time of engraftment and randomized to HDP-CDV or placebo (3 to 1 ratio) and received blinded therapy until approximately 100 day post-transplantation. HDP-CDV doses were 40 mg QW, 100 mg QW, 200 mg QW, 200 mg BIW and 100 mg BIW. Escalation to the next dose was decided by the data monitoring committee after review of the safety data from the previous Cohort. Subjects who developed CMV disease or CMV infection requiring pre-emptive therapy with local standard of care were discontinued from blinded therapy and followed for 4 weeks. Subjects who completed treatment with blinded therapy were followed for 8 weeks post-therapy.
# Data from Study HDP-CDV-201 also provided characterization of the safety and tolerability profile of HDP-CDV when administered for the prevention or control of CMV infection in high risk (R^+) post-HSCT adult subjects.
# The Safety population (SAFETY) included all randomized subjects who took at least one dose of study treatment. This population was used to summarize safety outcomes based on the treatment actually received, in cases where a subject was treated contrary to the randomization schedule.
# The safety and tolerability profile of HDP-CDV, including subject demographics and Baseline characteristics; the AE profile; and laboratory abnormalities of interest were analyzed in the cohorts followed in this investigation.
# Subjects completing the treatment period received a full course of study medication; those completing the entire study attended visits through 8 weeks of follow up. Subjects who discontinued treatment may have done so for protocol specified reasons (e.g. development of clinically significant CMV infection requiring preemptive treatment with excluded anti-CMV medications) or for other reasons (e.g., withdrawal, adverse events, loss to follow-up). The disposition of subjects in Study HDP-CDV-201 during the double-blind, placebo-controlled treatment period (through Week 11) is listed by dosing Cohort in TABLE 23.
# Adverse events were examined by severity to ensure that all safety signals were identified in this study population. Because of the frequency of events in HSCT recipients, particular attention was given to evaluation of Grade 3 […], 4 (severe), and 5 (fatal) adverse events.
# Only those preferred terms for which at least one Grade 3 or higher event was experienced in any treatment group are listed. Cytomegalovirus-related AEs are excluded from this analysis.
# HDP-CDV is a lipid conjugate of CDV. Because CDV is known to have adverse effects on renal function and bone marrow, decreased GFR and persistent neutropenia were identified as AEs of special interest. Key renal and hematological (TABLE 30) laboratory parameters were measured and listed below by Study HDP-CDV-201 treatment groups. TABLE 30 includes abnormal levels of serum creatinine, neutrophils, platelets, WBCs, and hemoglobin and includes data at Screening and during the treatment period.
# A common metric for unit based dosing of medications is by weight (mg/kg). When the distribution of weights was examined for all subjects participating in the study, the median was 78 kg and the lower 25th percentile weight was approximately 65 kg, which translates to a cut-off of ˜3 mg/kg for a 200 mg total weekly dose. Based upon this approach, a cut-off of 3 mg/kg was used to assess the frequency of diarrhea and associated GI AEs reported for the subjects in Cohorts 3 or 4a (TABLE 40).
smiles,measurement,setting,value
CCCCCCCCCCCCCCCCOCCCOP(=O)(O)COC(CO)Cn1ccc(N)nc1=O (stereo not drawn) [HDP-CDV],"Intensity of Gastrointestinal AEs, Grade 1, subjects",100 mg BIW,12 (24.0%)
same,"Intensity of Gastrointestinal AEs, Grade 2, subjects",100 mg BIW,17 (34.0%)
same,"Intensity of Gastrointestinal AEs, Grade 3, subjects",100 mg BIW,10 (20.0%)
same,"Intensity of Gastrointestinal AEs, Grade 4, subjects",100 mg BIW,1 (2.0%)
same,"Intensity of Gastrointestinal AEs, Grade 5, subjects",100 mg BIW,0
same,"Serum ALT level, Median fold increase from Baseline at Follow-up Week 1",100 mg BIW,1.52 fold
same,"Serum ALT level, Median fold increase from Baseline at Follow-up Week 4",100 mg BIW,1.11 fold
same,"Serum ALT level, Peak Median fold increase from Baseline",100 mg BIW,2.86 fold
same,Subjects completed study,100 mg BIW,25 (50.0%) n (%)
same,"TEAE Abdominal pain Grade 2, subjects",100 mg BIW,1 (2.0%)
same,"TEAE Abdominal pain Grade 3, subjects",100 mg BIW,1 (2.0%)
same,"TEAE Abdominal pain Grade 4, subjects",100 mg BIW,0
same,"TEAE Abdominal pain Grade 5, subjects",100 mg BIW,0
same,"TEAE Abdominal pain Overall Frequency, subjects",100 mg BIW,13 (26.0%)
same,"TEAE Diarrhea Grade 2, subjects",100 mg BIW,6 (12.0%)
same,"TEAE Diarrhea Grade 3, subjects",100 mg BIW,9 (18.0%)
same,"TEAE Diarrhea Grade 4, subjects",100 mg BIW,0
same,"TEAE Diarrhea Grade 5, subjects",100 mg BIW,0
same,"TEAE Diarrhea Overall Frequency, subjects",100 mg BIW,26 (52.0%)
same,"TEAE Hypokalaemia Grade 2, subjects",100 mg BIW,2 (4.0%)
same,"TEAE Hypokalaemia Grade 3, subjects",100 mg BIW,2 (4.0%)
same,"TEAE Hypokalaemia Grade 4, subjects",100 mg BIW,0
same,"TEAE Hypokalaemia Grade 5, subjects",100 mg BIW,0
same,"TEAE Hypokalaemia, subjects",100 mg BIW,8 (16.0%)
same,"TEAE Nausea Grade 2, subjects",100 mg BIW,9 (18.0%)
same,"TEAE Nausea Grade 3, subjects",100 mg BIW,2 (4.0%)
same,"TEAE Nausea Grade 4, subjects",100 mg BIW,0
same,"TEAE Nausea Grade 5, subjects",100 mg BIW,0
same,"TEAE Nausea Overall Frequency, subjects",100 mg BIW,17 (34.0%)
same,"TEAE Vomiting Grade 2, subjects",100 mg BIW,8 (16.0%)
same,"TEAE Vomiting Grade 3, subjects",100 mg BIW,2 (4.0%)
same,"TEAE Vomiting Grade 4, subjects",100 mg BIW,0
same,"TEAE Vomiting Grade 5, subjects",100 mg BIW,0
same,"TEAE Vomiting Overall Frequency, subjects",100 mg BIW,22 (44.0%)
same,"Total Bilirubin (Screening) >1-[…] ULN, subjects",100 mg BIW,3 (6.5%)
same,"Total Bilirubin (Screening) >1.5-3 × ULN, subjects",100 mg BIW,2 (4.3%)
same,"Total Bilirubin (Screening) >3-10 × ULN, subjects",100 mg BIW,0
same,"Total Bilirubin (Screening) >10 × ULN, subjects",100 mg BIW,0
same,"Total Bilirubin (any time during therapy) >1-[…] ULN, subjects",100 mg BIW,5 (10.0%)
same,"Total Bilirubin (any time during therapy) >1.5-3 × ULN, subjects",100 mg BIW,3 (6.0%)
same,"Total Bilirubin (any time during therapy) >3-10 × ULN, subjects",100 mg BIW,1 (2.0%)
same,"Total Bilirubin (any time during therapy) >10 × ULN, subjects",100 mg BIW,0
same,excess of subjects with severe diarrhea as compared to placebo,100 mg BIW,13%
same,incidence of diarrhea,100 mg BIW,52%
same,"TEAE Abdominal pain Grade 2, subjects",100 mg BIW >3 mg/k,0
same,"TEAE Abdominal pain Grade 3, subjects",100 mg BIW >3 mg/k,0
same,"TEAE Abdominal pain Grade 4, subjects",100 mg BIW >3 mg/k,0
same,"TEAE Abdominal pain Grade 5, subjects",100 mg BIW >3 mg/k,0
same,"TEAE Abdominal pain Overall Frequency, subjects",100 mg BIW >3 mg/k,4 (40%)
same,"TEAE Diarrhea Grade 2, subjects",100 mg BIW >3 mg/k,3 (30%)
same,"TEAE Diarrhea Grade 3, subjects",100 mg BIW >3 mg/k,3 (30%)
same,"TEAE Diarrhea Grade 4, subjects",100 mg BIW >3 mg/k,0
same,"TEAE Diarrhea Grade 5, subjects",100 mg BIW >3 mg/k,0
same,"TEAE Diarrhea Overall Frequency, subjects",100 mg BIW >3 mg/k,6 (60%)
same,"TEAE Hypokalaemia Grade 2, subjects",100 mg BIW >3 mg/k,1 (10%)
same,"TEAE Hypokalaemia Grade 3, subjects",100 mg BIW >3 mg/k,2 (20.0%)
same,"TEAE Hypokalaemia Grade 4, subjects",100 mg BIW >3 mg/k,0
same,"TEAE Hypokalaemia Grade 5, subjects",100 mg BIW >3 mg/k,0
same,"TEAE Hypokalaemia, subjects",100 mg BIW >3 mg/k,3 (30%)
same,"TEAE Nausea Grade 2, subjects",100 mg BIW >3 mg/k,3 (30%)
same,"TEAE Nausea Grade 3, subjects",100 mg BIW >3 mg/k,1 (10%)
same,"TEAE Nausea Grade 4, subjects",100 mg BIW >3 mg/k,0
same,"TEAE Nausea Grade 5, subjects",100 mg BIW >3 mg/k,0
same,"TEAE Nausea Overall Frequency, subjects",100 mg BIW >3 mg/k,4 (40%)
same,"TEAE Vomiting Grade 2, subjects",100 mg BIW >3 mg/k,4 (40.0%)
same,"TEAE Vomiting Grade 3, subjects",100 mg BIW >3 mg/k,1 (10.0%)
same,"TEAE Vomiting Grade 4, subjects",100 mg BIW >3 mg/k,0
same,"TEAE Vomiting Grade 5, subjects",100 mg BIW >3 mg/k,0
same,"TEAE Vomiting Overall Frequency, subjects",100 mg BIW >3 mg/k,6 (60%)
same,"TEAE Abdominal pain Grade 2, subjects",100 mg BIW ≦3 mg/kg,1 (2.5%)
same,"TEAE Abdominal pain Grade 3, subjects",100 mg BIW ≦3 mg/kg,1 (2.5%)
same,"TEAE Abdominal pain Grade 4, subjects",100 mg BIW ≦3 mg/kg,0
same,"TEAE Abdominal pain Grade 5, subjects",100 mg BIW ≦3 mg/kg,0
same,"TEAE Abdominal pain Overall Frequency, subjects",100 mg BIW ≦3 mg/kg,9 (22.5%)
same,"TEAE Diarrhea Grade 2, subjects",100 mg BIW ≦3 mg/kg,3 (7.5%)
same,"TEAE Diarrhea Grade 3, subjects",100 mg BIW ≦3 mg/kg,6 (15%)
same,"TEAE Diarrhea Grade 4, subjects",100 mg BIW ≦3 mg/kg,0
same,"TEAE Diarrhea Grade 5, subjects",100 mg BIW ≦3 mg/kg,0
same,"TEAE Diarrhea Overall Frequency, subjects",100 mg BIW ≦3 mg/kg,20 (50%)^
same,"TEAE Hypokalaemia Grade 2, subjects",100 mg BIW ≦3 mg/kg,1 (2.5%)
same,"TEAE Hypokalaemia Grade 3, subjects",100 mg BIW ≦3 mg/kg,0
same,"TEAE Hypokalaemia Grade 4, subjects",100 mg BIW ≦3 mg/kg,0
same,"TEAE Hypokalaemia Grade 5, subjects",100 mg BIW ≦3 mg/kg,0
same,"TEAE Hypokalaemia, subjects",100 mg BIW ≦3 mg/kg,5 (12.5%)
same,"TEAE Nausea Grade 2, subjects",100 mg BIW ≦3 mg/kg,6 (15%)
same,"TEAE Nausea Grade 3, subjects",100 mg BIW ≦3 mg/kg,1 (2.5%)
same,"TEAE Nausea Grade 4, subjects",100 mg BIW ≦3 mg/kg,0
same,"TEAE Nausea Grade 5, subjects",100 mg BIW ≦3 mg/kg,0
same,"TEAE Nausea Overall Frequency, subjects",100 mg BIW ≦3 mg/kg,13 (32.5%)
same,"TEAE Vomiting Grade 2, subjects",100 mg BIW ≦3 mg/kg,4 (10%)
same,"TEAE Vomiting Grade 3, subjects",100 mg BIW ≦3 mg/kg,1 (2.5%)
same,"TEAE Vomiting Grade 4, subjects",100 mg BIW ≦3 mg/kg,0
same,"TEAE Vomiting Grade 5, subjects",100 mg BIW ≦3 mg/kg,0
same,"TEAE Vomiting Overall Frequency, subjects",100 mg BIW ≦3 mg/kg,16 (40%)^
same,Abdominal pain leading to study drug withdrawal,"100 mg BIW, N = 50",1 (2.0%)
same,All AEs leading to withdrawal,"100 mg BIW, N = 50",18 (36.0%)
same,Diarrhoea leading to study drug withdrawal,"100 mg BIW, N = 50",2 (4.0%)
same,Dyspepsia leading to study drug withdrawal,"100 mg BIW, N = 50",0%
same,Nausea leading to study drug withdrawal,"100 mg BIW, N = 50",1 (2.0%)
same,TEAE ALT increased,"100 mg BIW, N = 50",9 (18.0%) n (%)
same,TEAE AST increased,"100 mg BIW, N = 50",5 (10.0%) n (%)
same,TEAE Abdominal pain,"100 mg BIW, N = 50",13 (26.0%) n (%)
same,"TEAE Abdominal pain, Upper","100 mg BIW, N = 50",2 (4.0%) n (%)
same,TEAE Acute GVHD,"100 mg BIW, N = 50",32 (64.0%) n (%)
same,TEAE Acute Myeloid Leukemia recurrent,"100 mg BIW, N = 50",3 (6.0%) n (%)
same,TEAE Acute Renal Failure,"100 mg BIW, N = 50",1 (2.0%) n (%)
same,TEAE Anxiety,"100 mg BIW, N = 50",3 (6.0%) n (%)
same,TEAE Arthralgias,"100 mg BIW, N = 50",3 (6.0%) n (%)
same,TEAE Back Pain,"100 mg BIW, N = 50",4 (8.0%) n (%)
same,TEAE Blood lactate dehydrogenase increased,"100 mg BIW, N = 50",4 (8.0%) n (%)
same,TEAE Creatinine increased,"100 mg BIW, N = 50",7 (14.0%) n (%)
